In patent US9855230B2 (ViiV Healthcare UK (No. 5) Limited, priority 2014, dated 2018):
Like-named read-outs stand apart in the source and are kept apart here.

Columns and labels:
[1] = Compound cytotoxicity (CC50), XTT-based colorimetric assay; type: cell-based; settings: human; uninfected MT2 cells, day 4, XTT assay
Summary of the method: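 Run under the antiviral-assay protocol but without virus. Viability was read on day 4 and CC50 values were derived from the readout.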

[2] = test system: recombinant NL4-3 virus (nef section replaced with Renilla luciferase gene) in MT-2 cells; assay: whole plant or invertebrate; type: cell-based, HIV
Summary of the method: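 Nef-deleted NL4-3 reporter virus carrying Renilla luciferase was used to infect MT-2 cells in the presence of serial compound dilutions. After 4-5 days of infection, antiviral activity was quantified from luciferase activity using a live-cell substrate.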

[3] = NL43, luciferase activity in MT-2 cells infected 4-5 days with recombinant NL4-3 virus, read-out: Activity
[4] = NL43, luciferase activity in MT-2 cells infected 4-5 days with recombinant NL4-3 virus, read-out: EC50

| Compound | CC50 at 4 day [1] [µM] | EC50 [2, 3] [µM] | EC50 [2, 4] [µM] | EC50 ([2]; NL43, read-out: Activity) [µM] |
| --- | --- | --- | --- | --- |
| Cc1ccccc1S(=O)(=O)NC(=O)N[C@@H](Cc1ccccc1)c1nccn1-c1ccc2c(c1)ncn2C [Example 66, (S)-2-methyl-N-((1-(1-(1-methyl-1H-benzo[d]imidazol-5-yl)-1H-imidazol-2-yl)-2-phenylethyl)carbamoyl)benzenesulfonamide] | > 100 | 0.1 to 1 | 0.34 | – |
| Cc1ccc2cc(-n3ccnc3[C@H](Cc3ccccc3)NC(=O)NS(=O)(=O)c3ccccc3C)ccc2n1 [Example 67, (S)-2-methyl-N-((1-(1-(2-methylquinolin-6-yl)-1H-imidazol-2-yl)-2-phenylethyl)carbamoyl)benzenesulfonamide] | > 100 | < 0.1 | – | – |
| Cc1ccccc1S(=O)(=O)NC(=O)N[C@@H](Cc1ccccc1)c1nccn1-c1cccc(N2CCCC2)c1 [Example 68, (S)-2-methyl-N-((2-phenyl-1-(1-(3-(pyrrolidin-1-yl)phenyl)-1H-imidazol-2-yl)ethyl)carbamoyl)benzenesulfonamide] | > 100 | 0.1 to 1 | – | – |
| Cc1ccccc1S(=O)(=O)NC(=O)N[C@@H](Cc1ccccc1)c1nccn1-c1ccc2ccccc2c1 [Example 69, (S)-2-methyl-N-((1-(1-(naphthalen-2-yl)-1H-imidazol-2-yl)-2-phenylethyl)carbamoyl)benzenesulfonamide] | > 100 | < 0.1 | 0.04 | – |
| Cc1ccccc1S(=O)(=O)NC(=O)N[C@@H](Cc1ccccc1)c1nccn1-c1ccc2scnc2c1 [Example 70, (S)-N-((1-(1-(benzo[d]thiazol-5-yl)-1H-imidazol-2-yl)-2-phenylethyl)carbamoyl)-2-methylbenzenesulfonamide] | > 100 | < 0.1 | – | – |
| O=C(N[C@@H](Cc1ccccc1)c1nccn1-c1ccc2scnc2c1)NS(=O)(=O)c1ccccc1F [Example 71, (S)-N-((1-(1-(benzo[d]thiazol-5-yl)-1H-imidazol-2-yl)-2-phenylethyl)carbamoyl)-2-fluorobenzenesulfonamide] | > 100 | 0.1 to 1 | – | – |
| Cc1nc2cc(-n3ccnc3[C@H](Cc3ccccc3)NC(=O)NS(=O)(=O)c3ccccc3C)ccc2s1 [Example 72, (S)-2-methyl-N-((1-(1-(2-methylbenzo[d]thiazol-5-yl)-1H-imidazol-2-yl)-2-phenylethyl)carbamoyl)benzenesulfonamide] | > 100 | < 0.1 | 0.05 | – |
| Cc1nc2cc(-n3ccnc3[C@H](Cc3ccccc3)NC(=O)NS(=O)(=O)c3ccccc3F)ccc2s1 [Example 73, (S)-2-fluoro-N-((1-(1-(2-methylbenzo[d]thiazol-5-yl)-1H-imidazol-2-yl)-2-phenylethyl)carbamoyl)benzenesulfonamide] | > 100 | 0.1 to 1 | – | – |
| Cc1ccccc1S(=O)(=O)NC(=O)N[C@@H](Cc1ccccc1)c1nccn1-c1ccc2sccc2c1 [Example 74, (S)-N-((1-(1-(benzo[b]thiophen-5-yl)-1H-imidazol-2-yl)-2-phenylethyl)carbamoyl)-2-methylbenzenesulfonamide] | 39 | < 0.1 | – | – |
| O=C(N[C@@H](Cc1ccccc1)c1nccn1-c1ccc2c(c1)CCO2)NS(=O)(=O)c1ccccc1F [Example 75, (S)-N-((1-(1-(2,3-dihydrobenzofuran-5-yl)-1H-imidazol-2-yl)-2-phenylethyl)carbamoyl)-2-fluorobenzenesulfonamide] | > 100 | < 0.1 | 0.02 | – |
| COC(=O)Nc1cccc(-n2ccnc2[C@H](Cc2ccccc2)NC(=O)NS(=O)(=O)c2ccccc2C)c1 [Example 76, (S)-methyl (3-(2-(2-phenyl-1-(3-(o-tolylsulfonyl)ureido)ethyl)-1H-imidazol-1-yl)phenyl)carbamate] | > 100 | 0.1 to 1 | – | – |
| Cc1ccccc1S(=O)(=O)NC(=O)N[C@@H](Cc1ccccc1)c1nccn1-c1ccc2occc2c1 [Example 77, (S)-N-((1-(1-(benzofuran-5-yl)-1H-imidazol-2-yl)-2-phenylethyl)carbamoyl)-2-methylbenzenesulfonamide] | > 100 | < 0.1 | – | – |
| O=C(N[C@@H](Cc1ccccc1)c1nccn1-c1ccc2occc2c1)NS(=O)(=O)c1ccccc1F [Example 78, (S)-N-((1-(1-(benzofuran-5-yl)-1H-imidazol-2-yl)-2-phenylethyl)carbamoyl)-2-fluorobenzenesulfonamide] | > 100 | < 0.1 | 0.02 | – |
| CCCC(=O)Nc1cccc(-n2ccnc2[C@H](Cc2ccccc2)NC(=O)NS(=O)(=O)c2ccccc2C)c1 [Example 79, (S)-N-(3-(2-(2-phenyl-1-(3-(o-tolylsulfonyl)ureido)ethyl)-1H-imidazol-1-yl)phenyl)butyramide] | > 100 | > 1 | – | – |
| Cc1ccccc1S(=O)(=O)NC(=O)N[C@@H](Cc1ccccc1)c1nccn1-c1cnn(-c2ccccc2)c1 [Example 80, (S)-2-methyl-N-((2-phenyl-1-(1-(1-phenyl-1H-pyrazol-4-yl)-1H-imidazol-2-yl)ethyl)carbamoyl)benzenesulfonamide] | > 100 | < 0.1 | – | – |
| Cc1ccccc1S(=O)(=O)NC(=O)N[C@@H](Cc1ccccc1)c1nccn1-c1cnn(Cc2ccccc2)c1 [Example 81, (S)-N-((1-(1-(1-benzyl-1H-pyrazol-4-yl)-1H-imidazol-2-yl)-2-phenylethyl)carbamoyl)-2-methylbenzenesulfonamide] | > 100 | 0.1 to 1 | 0.55 | – |
| Cc1ccccc1S(=O)(=O)NC(=O)N[C@@H](Cc1cc(F)cc(F)c1)c1nccn1-c1ccc2c(c1)CCO2 [Example 82, (S)-N-((2-(3,5-difluorophenyl)-1-(1-(2,3-dihydrobenzofuran-5-yl)-1H-imidazol-2-yl)ethyl)carbamoyl)-2-methylbenzenesulfonamide] | > 100 | 0.1 to 1 | – | – |
| COc1ccc(Cn2c(Br)cnc2[C@H](Cc2ccccc2)NC(=O)NS(=O)(=O)c2ccc(C)cc2)cc1 [Example 83, (S)-N-((1-(5-bromo-1-(4-methoxybenzyl)-1H-imidazol-2-yl)-2-phenylethyl)carbamoyl)-4-methylbenzenesulfonamide] | > 33 | > 1 | – | – |
| CCOc1ccc(-c2cccnc2[C@H](Cc2ccccc2)NC(=O)NS(=O)(=O)c2ccccc2C)cc1 [Example 88, (S)-N-((1-(3-(4-ethoxyphenyl)pyridin-2-yl)-2-phenylethyl)carbamoyl)-2-methylbenzenesulfonamide] | > 100 | 0.1 to 1 | – | – |
| COC(=O)Nc1ccc(-c2cccnc2[C@H](Cc2cc(F)cc(F)c2)NC(=O)NS(=O)(=O)c2ccccc2C)cc1 [Example 89, (S)-methyl (4-(2-(2-(3,5-difluorophenyl)-1-(3-(o-tolylsulfonyl)ureido)ethyl)pyridin-3-yl)phenyl)carbamate] | > 100 | – | – | 0.1 to 1 |
| Cc1ccccc1S(=O)(=O)NC(=O)N[C@@H](Cc1cc(F)cc(F)c1)c1ncccc1-c1ccc2ccncc2c1 [Example 90, (S)-N-((2-(3,5-difluorophenyl)-1-(3-(isoquinolin-7-yl)pyridin-2-yl)ethyl)carbamoyl)-2-methylbenzenesulfonamide] | > 100 | 0.1 to 1 | 0.23 | – |
